Results as given in PMC10339762, “Fragment-based drug discovery of small molecule ligands for the human chemokine CCL28” (SLAS discovery : advancing life sciences R & D, 2023).

How the values were obtained:
Format in all cases: binding
CCL28(4-108) [1] = target: T1, CCL28(4-108) (Homo sapiens, UniProt Q9NRJ3); assay: Single-fragment 1H-15N HSQC titration, chemical shift mapping; details: 6 mM fragment, 50 μM CCL28(4-108)
T1 construct: Uniformly ^15N-labeled CCL28(1-108) and CCL28(4-108) proteins were expressed using a previously described SUMO fusion construct; Smt (SUMO) fusion tag (N, cleaved yes); made in house; host or cells: E. coli BL21(DE3)
T1 sequence (Q9NRJ3 23-127): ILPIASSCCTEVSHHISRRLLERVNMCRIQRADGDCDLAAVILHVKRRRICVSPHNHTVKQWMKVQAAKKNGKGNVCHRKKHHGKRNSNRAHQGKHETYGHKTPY

CCL28(1-108) = target: T2, CCL28(1-108) (Homo sapiens, UniProt Q9NRJ3); assay: 1H-15N HSQC NMR titration of repurchased fragment hits (hit validation); details: for Kd: 50 μM CCL28(1-108), fragment 0–6 mM, HSQC at 25 °C, estimated by nonlinear fitting, read-out: Kd (fitting of titration-derived chemical shift perturbation data)
T2 construct: Uniformly ^15N-labeled CCL28(1-108) and CCL28(4-108) proteins were expressed using a previously described SUMO fusion construct; Smt (SUMO) fusion tag (N, cleaved yes); made in house; host or cells: E. coli BL21(DE3)
T2 sequence (Q9NRJ3 20-127): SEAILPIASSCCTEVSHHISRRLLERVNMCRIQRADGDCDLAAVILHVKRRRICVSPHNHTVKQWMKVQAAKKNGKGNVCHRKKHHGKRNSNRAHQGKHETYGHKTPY
Description: NMR samples for fragment screening and titration experiments were prepared using a liquid handling robot designed for and dedicated to sample mixing and loading of NMR sample tubes as previously described, except that 1.7 mm sample tubes were used with sample volumes of 60 μL. All ^1H,^15N HSQC spectra were acquired at 25 °C and 600 MHz on a Bruker Avance III HD NMR spectrometer equipped with a 1.7 mm TCI CryoProbe and SampleJet sample handling robot. NMR data processing was performed in an automated manner, as previously described. Custom Python scripts were used to automate the movement of NMRPipe processing scripts to each experiment directory, run the NMRPipe processing scripts, transfer transformed spectra to a processed data directory, compute HSQC difference spectra, generate HSQC overlay and HSQC difference contour plot files for each sample, perform principal component analysis calculations and K-means cluster analysis on all spectra acquired in each round of fragment screening.
Fragment screening was conducted against 50 μM ^15N-CCL28(1-108) in an iterative multiplexed manner as previously described, except that each chemical fragment was present at a concentration of 500 μM instead of 1mM. A collection of 2,678 fragments comprised of the Core 1000 (Maybridge), Zenobia 1 (Zenobia), L5700 (Targetmol), and 3D Shape Diverse (Enamine) libraries were arranged into 12-plex groups for the first iteration. A consistent buffer was used across all NMR samples (50 mM dMES, 150 mM NaCl, 3% v/v DMSO, 0.02% w/v sodium azide, 5% v/v deuterium oxide) for 12-plex, 3-plex, and single compound screening rounds. Principal component analysis (PCA) and difference intensity analysis (DIA) comparisons of a reference (DMSO only) spectrum with each screening spectrum were used to identify potential hits, which were then verified by manual inspection of HSQC overlays and HSQC difference spectra, as previously described. Candidate hits were repurchased and subjected to ^1H-^15N HSQC titration with 50 μM CCL28(1-108) at concentrations ranging from 0–6 mM. Repurchased compound identities were confirmed via 1D ^1H NMR, and purity was determined to be at least 90% via natural abundance ^1H-^13C HSQC. For a subset of validated hits, CCL28 binding was measured in combination with a second fragment, each of which was titrated to a maximum concentration of 3 mM.
Because hits were identified in the primary screen from 2D NMR spectra acquired at a single fragment concentration, evaluating each candidate in terms of CCL28 binding affinity and specificity was essential. HSQC titrations up to a final concentration of 6 mM were performed using repurchased material for each candidate hit. Using the same chemical shift mapping approach employed for sTyr binding (Fig. 1B & C), titration-derived chemical shift perturbation data was used to ascertain and visualize the residues most affected by the addition of each compound. Fragment binding affinities were estimated by nonlinear fitting as previously described. […] While Kd value estimates ranged from ~1 mM to > 10 mM (Fig. 3), the other 13 fragments reproduced HSQC perturbations observed in the primary NMR screen, and PCA clustered them in two groups distinct from the non-hits. […] Four fragments mainly affected residues […], R21, E25, and the side chain of Q69 located in a cleft between the N-loop and α-helix. Another eight fragments largely perturbed residues in the sY binding cleft (Fig. 1C), including I53, which is analogous to V49 of CXCL12, a critical residue in facilitating binding interactions with sY21 of its receptor CXCR4 [18].

CCL28(4-108) [2] = target: T1, CCL28(4-108); assay: Dual-fragment NMR titration; details: one fragment titrated 0–3 mM into 3 mM of the other, 50 μM CCL28

Structure (SMILES)	Kd (CCL28(1-108))	also measured
O=C(O)c1ccc(-c2ccccc2)s1 [CC10501]	6.6 mM	Residues with largest / strong fragment-induced peak shifts (CCL28(4-108) [1]): I53, S20, and R21, CC10501 additionally yielded strong peak shifts for E25, Q69, and M66; Simultaneous binding of fragment pair (CCL28(4-108) [2]): can occupy adjoining subsites within the same cleft on the CCL28 surface
O=C(O)c1ccc(-c2cccs2)s1 [CC146001]	3.2 mM	
Cc1csc(C(C#N)C(=O)c2ccccc2F)n1 (centres unmarked) [E2C02.03 C11.09C10]	> 10 mM	
Cc1cc(Cl)ccc1S(=O)(=O)Nc1ccon1 [E2C04.04 C11.12C09]	> 10 mM	
OCCCCn1cnc2cc(Cl)c(Cl)cc21 [SPB07625]	0.85 mM	Simultaneous binding of fragment pair (CCL28(4-108) [2]): can occupy adjoining subsites within the same cleft on the CCL28 surface
O=C(O)c1cc2cc(C(F)(F)F)ccc2[nH]1 [TA01.A04.02A03]	> 10 mM	
Sc1nc2cc(Cl)ccc2o1 [ZT0010]	1.2 mM	
O=C(O)c1cc2cc(F)ccc2[nH]1 [ZT0073]	> 10 mM	
O=c1cc(O)c2ccccc2o1 [ZT0262]	> 10 mM	
Cc1cccc(C(=O)O)c1O [ZT0733]	> 10 mM	
O=C(O)/C=C/c1ccccc1 [ZT0754]	> 10 mM	
O=C(O)c1ccc2c3c(cccc13)CC2 [ZT0784]	2.3 mM	Binding site by chemical shift mapping (CCL28(1-108); HSQC titration up to 6 mM, two potential sites (N-loop/α-helix cleft; sY binding cleft)): perturbed residues located in both sites
O=C(O)c1cc2ccccc2[nH]1 [ZT1669]	> 10 mM	
